{
  "source": "patent US20230399661A1",
  "about": "“SHUTTLE AGENT PEPTIDES OF MINIMAL LENGTH AND VARIANTS THEREOF ADAPTED FOR TRANSDUCTION OF CAS9-RNP AND OTHER NUCLEOPROTEIN CARGOS” (priority 2020, published 2023)",
  "assay_type_in_all_cases": "cell-based, Human",
  "key": {"HeLa cells [1]": {"test_system": "HeLa cells", "experiment": "GFP-NLS transduction in presence of Cas9-RNP complex coated with small molecules", "details": "shuttle agent FSD250, up to 10 mM of the small molecule", "experimental": "HeLa cells were plated (20 000 cells/well) in a 96 well-plate the day prior to the experiment in DMEM containing 10% FBS. The Cas9-RNP complex coated with small molecules was prepared by mixing a Cas9-NLS recombinant protein (5 μM) complexed with a crRNA/tracrRNA (4 μM) targeting the beta-2 microglobulin (B2M) gene with 0, 100 nM, 1 μM, 10 μM, 100 μM, 1 mM or 10 mM of either 1,3-diaminoguanidine monohydrochloride, 3,5-diamino-1,2,4-triazole, guanidine hydrochloride or L-arginine amide dihydrochloride. The Cas9 RNP complex coated with small molecules was completed to […] with PBS. The delivery mix was prepared by mixing a synthetic peptide shuttle agent (10 μM), the GFP-NLS (10 μM) with or without the Cas9 RNP complex coated or not with small molecules and completed to 50 μL with phosphate-buffered saline PBS. […] Cells were then analyzed by flow cytometry.\nHypothesizing that the inhibitory effect of the sgRNA was due to the negatively charged phosphate backbone of the RNA, we attempted to neutralize the negative charges by coating the Cas9-RNP complexes with small positively charged molecules prior to transduction. Delivery of GFP in HeLa cells in the presence of Cas9-RNP was assessed in the presence of small positively charged molecules such as 1,3-diaminoguanidine monohydrochloride; 3,5-diamino-1,2,4-triazole; guanidine hydrochloride; or L-arginine amide dihydrochloride."}, "HeLa cells [2]": {"test_system": "HeLa cells", "experiment": "GFP-NLS transduction in the presence or absence of Cas9-RNP complex, flow cytometry", "set-up": "GFP transduction efficiency: concentration or dose not given beside the values", "details": "for resistance/sensitivity of GFP transduction to inhibition by Cas9-RNP: presence vs absence of Cas9-RNP", "experimental": "HeLa cells were plated (20 000 cells/well) in a 96 well-plate the day prior to the experiment in DMEM containing 10% FBS. A mix was prepared containing a synthetic peptide shuttle agent (10-30 μM), the GFP-NLS (10 μM) with or without a Cas9-NLS recombinant protein (2.5 μM) complexed with a crRNA/tracrRNA (2 μM) targeting the beta-2 microglobulin (B2M) gene and completed to 50 μL with PBS. Cells were washed once with PBS and the shuttle/GFP-NLS/Cas9-RNP mix was added to the cells and incubated for one minute. Then 100 μL DMEM containing 10% FBS was added to the mix. Cells were then immediately washed once with PBS and incubated in DMEM containing 10% FBS for two hours. Cells were the analyzed by flow cytometry.\nTo better understand the inhibitory effect of Cas9-RNP on shuttle agent transduction activity, HeLa cells were incubated with different peptides/shuttle agents and GFP cargo, in the presence or absence of Cas9-RNP, and delivery of GFP was assessed by flow cytometry, as described in Example 1. […] For some shuttle agents, the effect was particularly striking. For example, the GFP transduction efficiency for FSD268 decreased from 92% to 29%, the GFP transduction efficiency for FSD250 decreased from 83% to 13%, the GFP transduction efficiency for FSD10 decreased from 76% to 22%, and the GFP transduction efficiency for FSD395 decreased from 91% to 17%. […] Structure-activity relationships were explored further by repeating the above transduction experiments with shuttle agent variants sharing the same “core” amphipathic cationic alpha helical region as FSD10-15 (FIG. 4A), CM18 (FIG. 4B), and FSD356 (FIG. 4C)."}, "HeLa cells [3]": {"test_system": "HeLa cells", "experiment": "GFP or PI delivery by short/truncated shuttle agents, flow cytometry", "details": "GFP or PI cargo", "experimental": "HeLa cells were plated (20 000 cells/well) in a 96 well-plate the day prior to the experiment in DMEM containing 10% FBS. Each delivery mix comprising a synthetic peptide shuttle agent (10-30 μM) and GFP-NLS (10 μM) was prepared and completed to 50 μL with RPMI 1640 media. Cells were washed once with phosphate-buffered saline (PBS) and the shuttle/GFP-NLS mix was added to the cells and incubated for five minutes. Then 100 μL DMEM containing 10% FBS was added to the mix. Cells were then immediately washed once with PBS and incubated in DMEM containing 10% FBS for two hours. Cells were then analyzed by flow cytometry.\nHeLa cells were plated (20 000 cells/well) in a 96 well-plate the day prior to the experiment in DMEM containing 10% FBS. […] Cells were then analyzed by flow cytometry.\nTo test the transduction activity of short/truncated synthetic shuttle agents (e.g., generally having less than 20 amino acids), HeLa cells were incubated with control peptides and N-terminal shuttle agent fragments of different lengths and delivery of GFP or PI was assessed by flow cytometry as described in Example 1. […] The Overall Delivery Factor represents a single number that accounts for the toxicity of each shuttle agent/peptide, as well as its ability to deliver GFP and PI, and was calculated as follows: […]"}, "CFF-16HBEge cells [4]": {"test_system": "CFF-16HBEge cells", "experiment": "ABE-Cas9-RNP delivery, base editing evaluated by next-generation sequencing", "details": "NGS, compared to non-treated cells", "experimental": "(§1) For Cas9-RNP or ABE-Cas9-RNP transduction, a mix of Cas9-NLS or ABE-Cas9 recombinant protein (2.5 μM) complexed with a crRNA/tracrRNA (2 μM) targeting the beta-2 microglobulin (B2M) gene were co-incubated with 10-20 μM of synthetic peptide shuttle agent in a final volume of 50 μL completed with PBS. Cells were washed once with PBS and the shuttle/Cas9-RNP complex was added to the cells for and incubated for 60 to 90 seconds. Then 100 μL of DMEM (HeLa) or Alpha-MEM (CFF-16HBEge) containing 10% FBS was added to the mix. Cells were then immediately washed once with PBS and incubated in DMEM (HeLa) or Alpha-MEM (CFF-16HBEge) containing 10% FBS.\n(§2) Further transduction experiments in CFF-16HBEge cells were performed to compare the ability of shuttle agents to deliver functional Cas9-RNP genome editing versus ABE-Cas9-RNP base editing complexes. Variants of the shuttle agent FSD10 (FIG. 8A) were tested in parallel, and genome editing/base editing results as evaluated by next-generation sequencing (NGS) are shown in FIGS. 8B and 8C for Cas9-RNP and ABE-Cas9-RNP, respectively."}, "CFF-16HBEge cells [5]": {"test_system": "CFF-16HBEge cells", "experiment": "Cas9-RNP delivery, B2M genome editing", "details": "for genome editing (Cas9-RNP): NGS, compared to non-treated cells; for genome editing with Cas9-RNP as cargo: B2M knockout, versus non-treated negative control", "experimental": "HeLa cells were plated (10 000 cells/well) in a 96 well-plate the day prior to the experiment in DMEM containing 10% FBS. CFF-16HBEge cells were plated (10 000 cells/well) in a 96 well-plate the day prior to the experiment in Alpha-MEM containing 10% FBS.\nas §1\nGenome editing events resulting in the absence of B2M protein (knockout) at the cell surface were determined by flow cytometry 6 days post-transduction. Cells were washed once with PBS and incubated with the anti-B2 microglobulin antibody (PE conjugated) (0.5 μL of anti-B2M-PE in […] 0.5% BSA/PBS) for 45 minutes at room temperature. Cells were washed twice with PBS and detached with 50 µL of Trypsin-EDTA for 10 minutes at 37° C. then inactivated by adding 100 μL of media containing 10% FBS. The percentage of knockout cells (cells without B2M antibody signal) was determined by flow cytometry.\nA similar genome editing experiment as in Example 6 was performed in the Human Bronchial Epithelial cell line model of cystic fibrosis, CFF-16HBEge.\nas §2"}, "RH-30 cells": {"test_system": "RH-30 cells", "experiment": "PMO-FITC transduction in the presence of sgRNA spiked in the medium, flow cytometry", "details": "5 μM shuttle agent, 6 μM PMO-FITC, 2 μg of sgRNA (4 μg/mL)", "description": "Nuclear delivery of Cas9-sgRNA complexes (hereinafter Cas9-RNP) via first- and second-generation synthetic peptide shuttle agents generally occurs less efficiently than delivery of a Cas9 proteinaceous cargo alone (i.e., without its corresponding sgRNA; see Krishnamurthy et al., 2019, supplementary FIG. 6). The negative effect of the sgRNA (without Cas9) on shuttle agent-mediated transduction of a fluorescently-labelled charge-neutral polynucleotide analog cargo (phosphorodiamidate morpholino oligomer (PMO)) is also shown in FIG. 2A. Briefly, RH-30 cells (150,000 cells/well in 24-well dish) were contacted with a delivery mix containing 6 μM of PMO-FITC and 5 μM of the synthetic peptide shuttle agent FSD250 for 2 minutes in RPMI, in the presence of increasing amounts of sgRNA spiked in the medium. Cells were then washed, incubated in complete medium and then collected for analysis by flow cytometry after 1 h."}},
  "data": [
    {"compound": "Cl.N=C(NN)NN", "note": "[1,3-diaminoguanidine monohydrochloride]", "values": [
      {"measurement": "GFP transduction activity and Mean GFP delivery Scores in presence of Cas9-RNP coated with charge-neutralizing agent", "setting": "HeLa cells [1]", "result": "significantly inhibited"}
    ]},
    {"compound": "CM18: CM series peptide, 18 amino acids long; endosome leakage domain in some first generation shuttle agents (KWKLFKKIGAVLKVLTTG; CM18) [reference compound]", "values": [
      {"measurement": "GFP delivery score", "setting": "HeLa cells [2]; FIGS. 3 and 4B, presence or absence of Cas9-RNP not stated", "result": 1.8},
      {"measurement": "GFP transduction efficiency", "setting": "HeLa cells [2]; absence of Cas9-RNP", "result": 32, "unit": "%"},
      {"measurement": "GFP transduction efficiency", "setting": "HeLa cells [2]; presence of Cas9-RNP", "result": 28, "unit": "%"},
      {"measurement": "resistance/sensitivity of GFP transduction to inhibition by Cas9-RNP", "setting": "HeLa cells [2]", "result": "more resistant"},
      {"measurement": "transduction activity", "setting": "HeLa cells [3]", "result": "transduction activity was observed"}
    ]},
    {"compound": "FSD10-Cter: negative control peptide consisting of the C-terminal cationic portion of FSD10 alone (YARALRRQARTG; FSD10-Cter)", "values": [
      {"measurement": "base editing (ABE-Cas9-RNP)", "setting": "CFF-16HBEge cells [4]", "result": "did not exhibit any detectable genome editing or base editing"},
      {"measurement": "genome editing (Cas9-RNP)", "setting": "CFF-16HBEge cells [5]", "result": "did not exhibit any detectable genome editing"}
    ]},
    {"compound": "FSD10: synthetic peptide shuttle agent; FSD10-15 core, glycine/serine-rich linker and second cationic domain (KWKLARAFARAIKKLGGSGGGSYARALRRQARTG; FSD10)", "values": [
      {"measurement": "GFP transduction efficiency", "setting": "HeLa cells [2]; absence of Cas9-RNP", "result": 76, "unit": "%"},
      {"measurement": "GFP transduction efficiency", "setting": "HeLa cells [2]; presence of Cas9-RNP", "result": 22, "unit": "%"},
      {"measurement": "resistance/sensitivity of GFP transduction to inhibition by Cas9-RNP", "setting": "HeLa cells [2]", "result": "more sensitive to inhibition by Cas9-RNP"},
      {"measurement": "genome editing with Cas9-RNP as cargo", "setting": "CFF-16HBEge cells [5]", "result": "failed to show any increase in genome editing"}
    ]},
    {"compound": "FSD250: synthetic peptide shuttle agent; FSD446 with C-terminal segment replaced with a cationic segment (KWKLLKLWSRLLKLWGGSGGGSARAARQAR; FSD250)", "values": [
      {"measurement": "GFP transduction efficiency", "setting": "HeLa cells [2]; absence of Cas9-RNP", "result": 83, "unit": "%"},
      {"measurement": "GFP transduction efficiency", "setting": "HeLa cells [2]; presence of Cas9-RNP", "result": 13, "unit": "%"},
      {"measurement": "cargo transduction efficiency (PMO-FITC)", "setting": "RH-30 cells", "result": "reduced cargo transduction efficiency"}
    ]},
    {"compound": "FSD322: synthetic peptide shuttle agent (KWKLAKAWSRALKLWGGSGGGSARAQARQA; FSD322)", "values": [
      {"measurement": "genome editing with Cas9-RNP as cargo", "setting": "CFF-16HBEge cells [5]", "result": "failed to show any increase in genome editing"}
    ]},
    {"compound": "FSD374: core amphipathic cationic domain (as FSD174) flanked by short segments of non-cationic hydrophilic residues (GGSGGGSLLKIWSRLIKIWTQGRRLGGSGGGS; FSD374)", "values": [
      {"measurement": "resistance/sensitivity of GFP transduction to inhibition by Cas9-RNP", "setting": "HeLa cells [2]", "result": "virtually the same GFP transduction efficiency in the presence or absence of Cas9-RNP"},
      {"measurement": "genome editing with Cas9-RNP as cargo", "setting": "CFF-16HBEge cells [5]", "result": "significant genome editing"}
    ]},
    {"compound": "FSD395: synthetic peptide shuttle agent (KLKLLKLLLKLLKKLGGSGGGSQAKAQAKQAK; FSD395)", "values": [
      {"measurement": "GFP transduction efficiency", "setting": "HeLa cells [2]; absence of Cas9-RNP", "result": 91, "unit": "%"},
      {"measurement": "GFP transduction efficiency", "setting": "HeLa cells [2]; presence of Cas9-RNP", "result": 17, "unit": "%"},
      {"measurement": "genome editing with Cas9-RNP as cargo", "setting": "CFF-16HBEge cells [5]", "result": "failed to show any increase in genome editing"}
    ]},
    {"compound": "FSD397: synthetic peptide shuttle agent (KLKLAKALAKALKKLGGSGGGSQAKAQAKQAK; FSD397)", "values": [
      {"measurement": "genome editing with Cas9-RNP as cargo", "setting": "CFF-16HBEge cells [5]", "result": "failed to show any increase in genome editing"}
    ]},
    {"compound": "Linker-(FSD10-Cter)-Linker: negative control peptide: C-terminal cationic portion of FSD10 flanked by glycine/serine-rich linkers (GGSGGGSYARALRRQARTGGGSGGGS; Linker-(FSD10-Cter)-Linker)", "values": [
      {"measurement": "base editing (ABE-Cas9-RNP)", "setting": "CFF-16HBEge cells [4]", "result": "did not exhibit any detectable genome editing or base editing"},
      {"measurement": "genome editing (Cas9-RNP)", "setting": "CFF-16HBEge cells [5]", "result": "did not exhibit any detectable genome editing"}
    ]}
  ]
}
